The text below walks through data of ChEMBL document CHEMBL4270672, “Synthesis and Biological Evaluation of Fused Tricyclic Heterocycle Piperazine (Piperidine) Derivatives As Potential Multireceptor Atypical Antipsychotics” (J Med Chem, 2018).

Each structure is given as a SMILES string. Activity calls are given as the source filed them. The rule behind the calls is not given here.

For series [1], the system named is Rattus norvegicus. In words: Cognitive enhancing effect in Sprague-Dawley rat assessed as effect on total exploration time for familiar objects in acquisition trial at 0.3 mg/kg, po administered 1 hr measured for 3 mins by novel object recognition test. In kind it is functional, organism-based.
The target of another series is Histamine H1 receptor (Cavia porcellus, UniProt P31389).
The target in series [2] is T1, 5-hydroxytryptamine receptor 1A (Rattus norvegicus, UniProt P19327).
T1 sequence (P19327 whole entry): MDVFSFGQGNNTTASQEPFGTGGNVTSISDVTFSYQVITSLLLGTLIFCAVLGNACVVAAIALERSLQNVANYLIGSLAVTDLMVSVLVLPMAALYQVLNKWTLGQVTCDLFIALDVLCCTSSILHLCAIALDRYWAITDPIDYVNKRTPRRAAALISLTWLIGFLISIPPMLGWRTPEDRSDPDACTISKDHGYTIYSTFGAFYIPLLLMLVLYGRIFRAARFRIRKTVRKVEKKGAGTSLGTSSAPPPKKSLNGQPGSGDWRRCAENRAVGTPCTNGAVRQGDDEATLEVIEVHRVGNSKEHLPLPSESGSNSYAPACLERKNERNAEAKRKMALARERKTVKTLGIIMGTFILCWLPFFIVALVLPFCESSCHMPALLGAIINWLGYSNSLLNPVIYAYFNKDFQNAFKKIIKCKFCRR

Series [3] deals with 5-hydroxytryptamine receptor 2A (Rattus norvegicus, UniProt P14842). In words: Displacement of [3H]-ketanserine from serotonin 5-HT2A receptor in rat brain cortex homogenates incubated for 30 mins by liquid scintillation counting. In general terms: In a radioligand displacement assay an active substance lowers the binding of a labelled ligand.
In series [4] the target is T2, Adrenergic receptor alpha-1 (Rattus norvegicus, UniProt P15823+P23944+P43140).
T2 sequence (P15823 whole entry): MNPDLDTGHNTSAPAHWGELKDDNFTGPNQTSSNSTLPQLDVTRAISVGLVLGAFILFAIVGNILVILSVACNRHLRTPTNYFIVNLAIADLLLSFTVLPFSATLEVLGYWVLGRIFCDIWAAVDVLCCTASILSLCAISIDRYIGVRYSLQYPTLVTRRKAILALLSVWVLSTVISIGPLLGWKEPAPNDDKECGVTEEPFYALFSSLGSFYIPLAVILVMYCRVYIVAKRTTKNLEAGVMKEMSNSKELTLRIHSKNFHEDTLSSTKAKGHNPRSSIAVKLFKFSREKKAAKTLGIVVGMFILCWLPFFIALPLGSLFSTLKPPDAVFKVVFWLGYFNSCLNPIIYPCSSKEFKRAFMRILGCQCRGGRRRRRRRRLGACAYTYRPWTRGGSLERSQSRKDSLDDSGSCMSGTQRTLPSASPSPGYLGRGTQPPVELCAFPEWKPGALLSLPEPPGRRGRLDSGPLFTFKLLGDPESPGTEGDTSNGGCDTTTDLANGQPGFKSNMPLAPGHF
T2 sequence (P23944 whole entry): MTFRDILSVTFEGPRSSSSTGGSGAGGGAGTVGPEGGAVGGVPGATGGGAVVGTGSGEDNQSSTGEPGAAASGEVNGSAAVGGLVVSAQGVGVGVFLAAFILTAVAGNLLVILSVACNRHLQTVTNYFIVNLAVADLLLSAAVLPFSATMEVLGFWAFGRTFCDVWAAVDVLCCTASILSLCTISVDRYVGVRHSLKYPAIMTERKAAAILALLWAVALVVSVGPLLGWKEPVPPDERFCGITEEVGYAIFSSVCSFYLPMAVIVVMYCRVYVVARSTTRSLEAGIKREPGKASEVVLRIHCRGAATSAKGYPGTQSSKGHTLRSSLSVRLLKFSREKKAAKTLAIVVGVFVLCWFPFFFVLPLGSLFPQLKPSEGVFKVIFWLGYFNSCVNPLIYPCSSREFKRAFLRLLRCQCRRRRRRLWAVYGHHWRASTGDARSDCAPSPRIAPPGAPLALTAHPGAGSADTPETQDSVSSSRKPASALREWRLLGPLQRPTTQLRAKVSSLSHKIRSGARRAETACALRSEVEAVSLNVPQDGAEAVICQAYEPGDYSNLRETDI
T2 sequence (P43140 whole entry): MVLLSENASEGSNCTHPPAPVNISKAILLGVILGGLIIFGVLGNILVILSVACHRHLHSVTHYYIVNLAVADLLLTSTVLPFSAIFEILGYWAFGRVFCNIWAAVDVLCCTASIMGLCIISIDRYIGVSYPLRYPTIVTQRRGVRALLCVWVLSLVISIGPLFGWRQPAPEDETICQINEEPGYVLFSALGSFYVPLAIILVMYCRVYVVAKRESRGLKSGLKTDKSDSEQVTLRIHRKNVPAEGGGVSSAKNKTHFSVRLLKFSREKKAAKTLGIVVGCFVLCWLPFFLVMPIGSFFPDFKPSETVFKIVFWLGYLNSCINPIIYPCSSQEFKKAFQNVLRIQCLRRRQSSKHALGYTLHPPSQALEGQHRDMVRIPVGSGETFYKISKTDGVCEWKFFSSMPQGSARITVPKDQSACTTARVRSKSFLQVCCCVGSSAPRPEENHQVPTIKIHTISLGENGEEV
Description: Displacement of [3H]-prazosin from alpha-1 adrenergic receptor in rat cerebral cortex homogenates incubated for 60 mins by liquid scintillation counting

The next series concerns the target D(3) dopamine receptor (Rattus norvegicus, UniProt P19020).
Series [5] has as its target T3, 5-hydroxytryptamine receptor 2C (Rattus norvegicus, UniProt P08909).
T3 sequence (P08909 whole entry): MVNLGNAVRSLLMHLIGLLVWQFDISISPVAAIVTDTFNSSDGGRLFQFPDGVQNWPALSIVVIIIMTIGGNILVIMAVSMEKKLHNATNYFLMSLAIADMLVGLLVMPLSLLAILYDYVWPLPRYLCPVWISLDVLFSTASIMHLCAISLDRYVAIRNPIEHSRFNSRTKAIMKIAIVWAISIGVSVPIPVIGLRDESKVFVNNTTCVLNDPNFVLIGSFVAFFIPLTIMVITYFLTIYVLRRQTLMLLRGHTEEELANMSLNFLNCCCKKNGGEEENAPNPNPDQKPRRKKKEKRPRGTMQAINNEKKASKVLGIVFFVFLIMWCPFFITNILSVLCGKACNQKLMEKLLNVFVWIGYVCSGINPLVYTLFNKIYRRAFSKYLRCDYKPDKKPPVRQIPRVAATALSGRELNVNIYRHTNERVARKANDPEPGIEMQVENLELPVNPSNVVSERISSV

The target in series [6] is D(2) dopamine receptor (Rattus norvegicus, UniProt P61169).
The target in series [7] is T4, 5-hydroxytryptamine receptor 6 (Homo sapiens, UniProt P50406). In words: biochemical.
For series [8], the system named is Mus musculus. In words: Induction of catalepsy in po dosed Kunming mouse measured after 60 secs. The format is organism-based. Particulars: in vivo, 1 min.
Series [9] can be described thus: Therapeutic index, ratio of ED50 for catalepsy in Kunming mouse to ED50 for apomorphine-induced climbing in Kunming mouse. In kind it is toxicity, organism-based. Particulars: in vivo, read-out: Ratio ED50.
Series [10] is filed under the species Mus musculus. In words: animal or person. Particulars: Kunming, po.
Description: Antipsychotic activity in po dosed Kunming mouse assessed as reduction in apomorphine-induced climbing pretreated for 30 mins followed by apomorphine injection measured at 10 to 30 mins post dose
The species entered for series [11] is Mus musculus. In words: animal or person. Particulars: Kunming, po. This is another data set of the same source.
Description: Antipsychotic activity in po dosed Kunming mouse assessed as reduction in MK-801-induced hyperactivity pretreated for 60 mins followed by MK-801 challenge measured for 90 mins
The nature of series [12]: Therapeutic index, ratio of ED50 for catalepsy in Kunming mouse to ED50 for MK-801-induced hyperactivity in Kunming mouse. In kind it is toxicity, organism-based. Particulars: in vivo, read-out: Ratio ED50.
For series [13], the target named is T4, 5-hydroxytryptamine receptor 6. Briefly: Agonist activity at serotonin 5-HT6 receptor (unknown origin) expressed in HEK293 cells assessed as induction of calcium flux at 10 uM after 60 mins by calcium 4-dye based FLIPR assay relative to control. The format is functional, cell-based. Background: A change in cytosolic calcium serves as a functional read-out for many receptors and channels.

Series [14] concerns the target 5-hydroxytryptamine receptor 2A (Homo sapiens, UniProt P28223). In words: Agonist activity at serotonin 5-HT2A receptor (unknown origin) expressed in HEK293 cells assessed as induction of calcium flux at 10 uM after 60 mins by calcium 4-dye based FLIPR assay relative to control. In kind it is functional, cell-based.
Series [15] deals with D(2) dopamine receptor (Homo sapiens, UniProt P14416). In words: Antagonist activity at dopamine D2 receptor long isoform (unknown origin) expressed in HEK293 cells assessed as inhibition of dopamine-induced calcium flux at 10 uM after 15 mins by calcium 4-dye based FLIPR assay relative to control. In kind it is functional, cell-based.
The subject of series [16] is Rattus norvegicus. Briefly: Cognitive enhancing effect in Sprague-Dawley rat assessed as effect on total exploration time for familiar objects in acquisition trial at 0.2 mg/kg, po administered 1 hr measured for 3 mins by novel object recognition test. In kind it is functional, organism-based.
Series [17] deals with Rattus norvegicus. In words: Antipsychotic activity in po dosed Sprague-Dawley rat assessed as reduction in conditioned avoidance response measured at 90 mins post single dose. In kind it is functional. Particulars: 1.5 h.
For series [18], the system named is Mus musculus. Briefly: Induction of weight gain in Kunming mouse at 0.03 to 0.27 mg/kg, po administered for 28 days measured every day during compound dosing. The format is organism-based. Particulars: in vivo, 672 h.
Series [19] has as its target Voltage-gated inwardly rectifying potassium channel KCNH2 (Homo sapiens, UniProt Q12809).
Description: Inhibition of human ERG expressed in HEK293 cells at -50 mV holding potential by patch clamp assay

T4 sequence (P50406 whole entry): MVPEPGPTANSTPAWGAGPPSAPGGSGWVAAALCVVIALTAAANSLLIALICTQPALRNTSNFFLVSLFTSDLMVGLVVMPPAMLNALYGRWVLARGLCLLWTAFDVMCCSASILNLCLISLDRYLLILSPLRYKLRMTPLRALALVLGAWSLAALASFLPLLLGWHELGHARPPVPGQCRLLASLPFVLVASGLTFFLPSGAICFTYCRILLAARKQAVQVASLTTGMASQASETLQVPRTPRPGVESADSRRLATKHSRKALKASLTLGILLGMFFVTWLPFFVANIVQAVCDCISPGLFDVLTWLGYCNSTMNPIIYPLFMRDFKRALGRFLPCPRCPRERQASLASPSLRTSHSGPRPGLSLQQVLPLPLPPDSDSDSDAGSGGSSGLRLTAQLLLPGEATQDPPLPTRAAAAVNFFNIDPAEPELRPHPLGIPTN
Sequence of D(2) dopamine receptor (Rattus norvegicus, UniProt P61169) (P61169 whole entry): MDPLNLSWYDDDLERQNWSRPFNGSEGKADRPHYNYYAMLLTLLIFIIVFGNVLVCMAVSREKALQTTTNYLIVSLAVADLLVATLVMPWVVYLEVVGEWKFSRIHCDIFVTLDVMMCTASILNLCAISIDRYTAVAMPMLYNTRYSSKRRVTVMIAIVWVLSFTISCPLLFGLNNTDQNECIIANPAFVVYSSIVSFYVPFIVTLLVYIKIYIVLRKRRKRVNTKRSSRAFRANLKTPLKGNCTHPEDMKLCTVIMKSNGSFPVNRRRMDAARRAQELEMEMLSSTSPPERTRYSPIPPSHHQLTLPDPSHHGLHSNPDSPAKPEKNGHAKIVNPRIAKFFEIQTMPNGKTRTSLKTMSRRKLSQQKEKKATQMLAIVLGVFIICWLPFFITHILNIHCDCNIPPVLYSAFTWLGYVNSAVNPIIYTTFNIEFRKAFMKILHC
Sequence of Histamine H1 receptor (P31389 whole entry): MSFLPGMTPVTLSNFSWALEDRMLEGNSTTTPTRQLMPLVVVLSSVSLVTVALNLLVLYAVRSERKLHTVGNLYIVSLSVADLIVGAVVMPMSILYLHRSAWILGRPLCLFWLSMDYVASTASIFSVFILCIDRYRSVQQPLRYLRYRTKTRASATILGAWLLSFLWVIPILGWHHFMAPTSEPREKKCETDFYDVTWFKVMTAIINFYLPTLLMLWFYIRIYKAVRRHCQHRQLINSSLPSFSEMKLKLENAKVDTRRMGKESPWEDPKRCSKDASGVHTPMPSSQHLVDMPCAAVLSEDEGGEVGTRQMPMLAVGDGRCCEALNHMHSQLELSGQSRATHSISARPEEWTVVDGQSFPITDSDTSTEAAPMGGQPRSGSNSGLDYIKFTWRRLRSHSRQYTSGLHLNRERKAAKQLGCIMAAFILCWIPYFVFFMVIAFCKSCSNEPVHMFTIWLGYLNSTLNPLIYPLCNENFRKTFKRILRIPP
Sequence of D(3) dopamine receptor (P19020 whole entry): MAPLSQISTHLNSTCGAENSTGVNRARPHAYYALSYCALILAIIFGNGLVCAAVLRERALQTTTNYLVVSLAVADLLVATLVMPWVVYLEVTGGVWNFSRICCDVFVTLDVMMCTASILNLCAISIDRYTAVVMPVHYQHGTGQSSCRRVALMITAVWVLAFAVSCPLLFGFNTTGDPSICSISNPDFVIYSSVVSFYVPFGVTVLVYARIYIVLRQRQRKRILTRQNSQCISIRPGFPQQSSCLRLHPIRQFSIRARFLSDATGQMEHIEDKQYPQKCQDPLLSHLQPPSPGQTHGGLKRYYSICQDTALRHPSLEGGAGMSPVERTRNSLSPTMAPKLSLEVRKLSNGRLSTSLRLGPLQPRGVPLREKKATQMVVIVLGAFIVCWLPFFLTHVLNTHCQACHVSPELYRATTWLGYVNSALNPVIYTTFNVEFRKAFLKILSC
Sequence of 5-hydroxytryptamine receptor 2A (Rattus norvegicus, UniProt P14842) (P14842 whole entry): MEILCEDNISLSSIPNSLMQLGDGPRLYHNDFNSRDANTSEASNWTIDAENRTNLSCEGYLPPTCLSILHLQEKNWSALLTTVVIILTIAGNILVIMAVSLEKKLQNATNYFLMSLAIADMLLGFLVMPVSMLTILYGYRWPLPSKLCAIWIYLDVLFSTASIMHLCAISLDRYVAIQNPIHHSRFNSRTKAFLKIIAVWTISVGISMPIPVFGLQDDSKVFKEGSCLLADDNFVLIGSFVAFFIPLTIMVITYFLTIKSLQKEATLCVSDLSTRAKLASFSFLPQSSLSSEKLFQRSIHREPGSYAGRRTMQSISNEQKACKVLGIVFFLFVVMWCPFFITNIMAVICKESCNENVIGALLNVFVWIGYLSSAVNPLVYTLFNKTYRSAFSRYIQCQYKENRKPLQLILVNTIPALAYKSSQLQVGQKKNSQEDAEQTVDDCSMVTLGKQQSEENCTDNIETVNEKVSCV
Sequence of D(2) dopamine receptor (Homo sapiens, UniProt P14416) (P14416 whole entry, canonical isoform): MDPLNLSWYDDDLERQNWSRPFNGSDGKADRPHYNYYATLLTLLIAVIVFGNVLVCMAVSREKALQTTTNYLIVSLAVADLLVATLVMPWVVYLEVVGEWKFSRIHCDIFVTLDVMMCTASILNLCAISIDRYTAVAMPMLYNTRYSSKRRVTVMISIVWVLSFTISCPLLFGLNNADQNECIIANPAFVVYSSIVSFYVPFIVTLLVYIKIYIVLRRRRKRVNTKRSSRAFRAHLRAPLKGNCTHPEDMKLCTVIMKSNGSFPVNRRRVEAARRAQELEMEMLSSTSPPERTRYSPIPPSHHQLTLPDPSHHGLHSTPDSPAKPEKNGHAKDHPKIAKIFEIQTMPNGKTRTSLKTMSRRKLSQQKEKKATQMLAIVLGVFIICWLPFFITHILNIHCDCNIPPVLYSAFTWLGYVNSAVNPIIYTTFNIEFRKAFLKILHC
Sequence of Voltage-gated inwardly rectifying potassium channel KCNH2 (Q12809 whole entry): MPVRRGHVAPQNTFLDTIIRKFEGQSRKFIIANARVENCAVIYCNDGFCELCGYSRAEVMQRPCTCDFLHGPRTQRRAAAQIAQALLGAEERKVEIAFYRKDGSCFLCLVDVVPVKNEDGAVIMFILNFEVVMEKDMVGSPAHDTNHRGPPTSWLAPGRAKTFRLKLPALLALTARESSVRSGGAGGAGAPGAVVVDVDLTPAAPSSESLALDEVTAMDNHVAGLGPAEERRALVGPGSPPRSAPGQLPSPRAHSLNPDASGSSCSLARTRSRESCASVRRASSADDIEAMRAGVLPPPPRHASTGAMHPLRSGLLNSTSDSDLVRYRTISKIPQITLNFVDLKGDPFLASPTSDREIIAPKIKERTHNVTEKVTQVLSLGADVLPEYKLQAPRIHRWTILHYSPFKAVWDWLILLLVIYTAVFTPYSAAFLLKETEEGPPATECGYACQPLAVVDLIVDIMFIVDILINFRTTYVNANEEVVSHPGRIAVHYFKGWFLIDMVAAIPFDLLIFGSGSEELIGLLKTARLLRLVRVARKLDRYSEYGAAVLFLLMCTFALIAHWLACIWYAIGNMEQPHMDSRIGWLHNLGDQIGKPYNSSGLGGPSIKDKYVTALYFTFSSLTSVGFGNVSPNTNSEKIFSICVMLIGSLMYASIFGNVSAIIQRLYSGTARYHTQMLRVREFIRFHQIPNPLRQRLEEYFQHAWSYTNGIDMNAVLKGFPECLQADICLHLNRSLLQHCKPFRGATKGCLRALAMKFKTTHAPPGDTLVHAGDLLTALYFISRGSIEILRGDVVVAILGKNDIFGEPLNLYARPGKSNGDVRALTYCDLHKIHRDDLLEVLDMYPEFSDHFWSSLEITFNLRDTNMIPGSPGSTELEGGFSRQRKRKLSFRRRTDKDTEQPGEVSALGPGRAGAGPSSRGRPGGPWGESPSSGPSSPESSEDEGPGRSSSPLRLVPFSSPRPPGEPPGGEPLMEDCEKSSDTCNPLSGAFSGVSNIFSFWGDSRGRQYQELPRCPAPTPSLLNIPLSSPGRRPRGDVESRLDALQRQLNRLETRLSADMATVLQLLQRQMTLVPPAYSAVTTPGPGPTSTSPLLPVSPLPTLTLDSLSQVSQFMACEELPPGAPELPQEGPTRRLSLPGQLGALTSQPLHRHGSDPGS
Sequence of 5-hydroxytryptamine receptor 2A (Homo sapiens, UniProt P28223) (P28223 whole entry, canonical isoform): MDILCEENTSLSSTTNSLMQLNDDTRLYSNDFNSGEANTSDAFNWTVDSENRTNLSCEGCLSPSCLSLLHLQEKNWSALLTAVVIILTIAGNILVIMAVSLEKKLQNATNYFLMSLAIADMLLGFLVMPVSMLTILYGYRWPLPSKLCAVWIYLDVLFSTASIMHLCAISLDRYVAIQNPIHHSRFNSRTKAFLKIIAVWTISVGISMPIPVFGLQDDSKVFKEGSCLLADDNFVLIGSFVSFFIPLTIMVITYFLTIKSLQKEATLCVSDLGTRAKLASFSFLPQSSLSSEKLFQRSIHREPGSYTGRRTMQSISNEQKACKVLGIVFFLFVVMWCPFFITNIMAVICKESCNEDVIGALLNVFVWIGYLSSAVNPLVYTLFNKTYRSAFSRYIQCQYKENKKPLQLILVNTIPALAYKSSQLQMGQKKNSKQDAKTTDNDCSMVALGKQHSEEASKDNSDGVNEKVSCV
Description for Histamine H1 receptor: Displacement of [3H]-mepyramine from histamine H1 receptor in guinea pig cerebellum homogenates incubated for 60 mins by liquid scintillation counting

For `CCN(C)C(=O)Oc1cccc([C@H](C)N(C)C)c1`, the outcome in the series with Rattus norvegicus [1] was Active.

As to `O=C(CCCN1CCC(c2noc3cc(F)ccc23)CC1)c1cc2c3c(c1)CCN3C(=O)CC2`, the inhibitory constant (Ki) came out at 421 nM at Histamine H1 receptor; 12 nM in [2]; 9.9 nM in [3]; 491.3 nM in [4]; 61.3 nM at D(3) dopamine receptor; 610 nM in series [5]. The Ki amounted to 10.3 nM at D(2) dopamine receptor [6] and 241 nM in [7].

Consider `O=C(CCCN1CCC(O)(c2ccc(Cl)cc2)CC1)c1ccc(F)cc1` [HALOPERIDOL], for which the ED50 with Mus musculus [8] came out at 0.12 mg/kg; in the series listed under Mus musculus [10], 0.11 mg/kg; in the series listed under Mus musculus [11], 0.16 mg/kg. Moreover, the results for the selectivity ratio in [9] and in series [12] were 1.09 and 0.75, respectively.

On to `O=C1CCc2cc(CCCCN3CCC(c4noc5cc(F)ccc45)CC3)cc3c2N1CC3`, for which the Ki is 712 nM on Histamine H1 receptor; 11.7 nM in [2]; 19.3 nM in series [3]; 99.3 nM in series [4]; 54.9 nM on D(3) dopamine receptor; 540 nM in series [5]. In addition, the results for the Ki (on D(2) dopamine receptor [6]; in series [7]) were 9.9 nM and 17.7 nM, respectively.

Take `O=C1CCc2cc(C(O)CCCCN3CCC(c4noc5cc(F)ccc45)CC3)cc3c2N1CC3` (configuration not stated): the Ki came out at 43.5 nM on Histamine H1 receptor; 12 nM in series [2]; 0.4 nM in series [3]; 596 nM in series [4]; 116 nM at D(3) dopamine receptor; 33.7 nM in series [5]. Moreover, the results for the Ki (at D(2) dopamine receptor [6]; in [7]) were 8.4 nM and 29.5 nM, respectively.

Take `NCCc1c[nH]c2ccc(O)cc12`: the results for the Activity in [13] and in [14] were 98% and 94.5%, respectively.

For `CN1CCc2cc(Cl)c(O)cc2[C@@H](c2ccccc2)C1`, on D(2) dopamine receptor [15], the inhibition was determined as 99%.

As to `Cc1nc2n(c(=O)c1CCN1CCC(c3noc4cc(F)ccc34)CC1)CCCC2` [RISPERIDONE], the ED50 in the series with Mus musculus [8] is 0.51 mg/kg; in the series listed under Mus musculus [10], 0.28 mg/kg; in the series listed under Mus musculus [11], 0.011 mg/kg; in the series with Rattus norvegicus [17], 0.52 mg/kg. Also, the result in the series with Rattus norvegicus [16] was inactive. The Activity entry with Mus musculus [18] is “Toxic”.

Consider `O=C1CCc2cc(C(O)CCCN3CCC(c4noc5cc(F)ccc45)CC3)cc3c2N1CC3` (configuration not stated), for which the Ki amounted to 339 nM on Histamine H1 receptor; 22.5 nM in series [2]; 69.5 nM in series [3]; 339 nM in series [4]; 45.4 nM at D(3) dopamine receptor; 742 nM in series [5]. For the same molecule, the Ki in series [7] was 6.36 nM. The same molecule had an IC50 in [19] of 1900 nM.

What is called Ki is a dissociation constant, usually derived from enzyme kinetics or from competition with a known ligand. A low value points to tighter binding. In general, ED50 refers to the midpoint of the dose-response relation. One may read the inhibition as the share of the control response that was lost under treatment. As usually defined, the IC50 is the concentration needed to halve the response being measured.
